Among the data in ChEMBL document CHEMBL3879897, “1,4-dithiin and 1,4-dithiepin-1,1,4,4, tetroxide derivatives useful as antagonists of the human galanin receptor” (2002) are inhibition values, retold here.

Holding throughout (type): subcellular
For assay [1], the target named is T1, Galanin receptor type 1 (Rattus norvegicus) (UniProt Q62805).
T1 sequence (whole entry): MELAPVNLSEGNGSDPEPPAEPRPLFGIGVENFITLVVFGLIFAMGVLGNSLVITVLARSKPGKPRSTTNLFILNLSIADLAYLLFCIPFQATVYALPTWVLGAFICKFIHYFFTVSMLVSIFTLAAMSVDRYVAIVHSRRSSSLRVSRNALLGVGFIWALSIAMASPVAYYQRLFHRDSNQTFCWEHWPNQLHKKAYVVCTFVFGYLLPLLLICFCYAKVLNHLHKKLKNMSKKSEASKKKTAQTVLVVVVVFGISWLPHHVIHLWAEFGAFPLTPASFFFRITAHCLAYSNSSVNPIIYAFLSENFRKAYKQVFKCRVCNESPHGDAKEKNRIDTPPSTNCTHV
Kind of assay: Antagonist activity at galanin -1 receptor in rat brain synaptosomes assessed as galanin-mediated suppression of K+-Krebs-ringer solution-induced [3H]-acetylcholine secretion at 10 uM measured 10 mins post 30 sces superfusing with K+-Krebs-ringer solution by liquid scintillation spectrometric method (reference value: […]%).

Assay [2] has as its target T1, Galanin receptor type 1 (Rattus norvegicus). Nature of the assay: Antagonist activity at galanin -1 receptor in rat brain synaptosomes assessed as galanin-mediated suppression of basal [3H]-acetylcholine secretion at 1 uM measured 10 mins post 30 sces superfusing with K+-Krebs-ringer solution by liquid scintillation spectrometric method (reference value: […]%).
The target is the same in assay [3]. Kind of assay: Antagonist activity at galanin -1 receptor in rat brain synaptosomes assessed as galanin-mediated suppression of basal [3H]-acetylcholine secretion at 10 uM measured 10 mins post 30 sces superfusing with K+-Krebs-ringer solution by liquid scintillation spectrometric method (reference value: […]%).
For assay [4] the target is unchanged. Nature of the assay: Antagonist activity at galanin -1 receptor in rat brain synaptosomes assessed as galanin-mediated suppression of K+-Krebs-ringer solution-induced [3H]-acetylcholine secretion at 1 uM measured 10 mins post 30 sces superfusing with K+-Krebs-ringer solution by liquid scintillation spectrometric method (reference value: […]%).

By inhibition is commonly meant the drop in the measured response relative to a control, in per cent. Turning to `O=S1(=O)C=C(c2ccc(I)cc2)S(=O)(=O)CCC1`, the inhibition in assay [1] was 22.3%; in assay [2] it was 39.2%; in assay [3], 37%; in assay [4], 35.2%.

For the compound `O=S1(=O)C=C(c2cccc(F)c2)S(=O)(=O)CCC1`, the figures for the inhibition in assay [2], in assay [3] and in assay [4] were 38.9%, 37% and 23.9%, respectively.
